Experimental data: patent US20200236959A1, “METHOD FOR ANTI-SPROUTING TUBER TREATMENT WITH REDUCED AMOUNT OF CIPC” (priority 2014, published 2020)

Experiments:
[1] = system: potatoes of the variety Bintje; assay: Fogging trial in potato storage cabins, sprout index (PCA scale); assay type: in vivo, Solanum tuberosum; details: fogging every 3 weeks during storage, PCA scale 1-9
Method: The storage system was designed to duplicate a large commercial storage facility in miniature. It consisted of 4 test cabins, with room for 4 boxes per level. In total there were 7 levels, and the boxes were placed in a stair-pattern, in clock-wise direction. Each cabin could be used to store up to 560 kg of potatoes per cabin. The dimensions of a cabin are depicted in FIG. 1.
During storage the air temperature within the storage system was kept between 5.0° C. and 9.5° C. The relative humidity was kept between 87% and 100%.
The application equipment used for hot fogging was IGEBA TF-35. The application equipment used for cold fogging was VEUGEN, type: FOGCOL. The operation pressure was 3.3 bar. […]
Around 15 minutes before treatment, Automatic Regulation was switched off and Manual Internal Ventilation was switched on (Force III). […] Note: Ventilation Force III means ˜900 m^3/h. • As the exact weight of tubers in the cell was known, the exact quantity of formulated product was calculated and prepared. • During spraying/fogging and till around 15 minutes after spraying, Internal • Ventilation was kept switched on (Force III) to assure a good contact between product and tubers. • Around 15 minutes after spraying, Internal Ventilation was switched off • The day after (minimum 12 hours after end of spraying) Automatic Regulation was switched on till next application or till end of trial […]

potatoes = details: hot fogging; cited from earlier work

Row | Compound | sprout growth (sprout index, FIG. 2) [1] | anti-sprouting efficacy in combination with CIPC (potatoes)
1 | C=C(C)C1CC=C(C)CC1 (centres unmarked) [Limonene, 1-methyl-4-(1-methylethenyl)-cyclohexene] | did not have any effect on sprout growth | 
2 | C=C(C)C1CC=C(C)C(=O)C1 (centres unmarked) [carvone] |  | good result
